Data: ChEMBL document CHEMBL3390844, “Development of substituted 7-phenyl-4-aminobenzothieno[3,2-d] pyrimidines as potent LIMK1 inhibitors” (Medchemcomm, 2011)
Converted amounts (≈) assume the structure as drawn.

What was measured:
[1] = target: T1, LIM domain kinase 1 (Homo sapiens, UniProt P53667); assay: Inhibition of LIMK1 (unknown origin) assessed as remaining ATP level using cofilin-2 protein as substrate measured after 60 mins incubation with enzyme by KinaseGlo assay
[2] = target: T1, LIM domain kinase 1; assay: Inhibition of LIMK1 (unknown origin) assessed as ADP formation using cofilin-2 protein as substrate measured after 60 mins incubation with enzyme by Transcreener assay
[3] = Solubility of the compound in phosphate buffer at pH 6.5 by nephelometry; format: physicochemical
[4] = Solubility of the compound in 0.01 M HCl at pH 2 by nephelometry; format: physicochemical
[5] = Partition coefficient, log D of the compound at pH 7.4 by HPLC analysis; format: physicochemical; conditions: octanol/water
[6] = In vitro intrinsic clearance in mouse liver microsomes at 1 uM by LC-MS analysis; format: ADME; conditions: read-out: CLH
[7] = In vitro intrinsic clearance in human liver microsomes at 1 uM by LC-MS analysis; format: ADME; conditions: read-out: CLH
[8] = Plasma protein binding in human by LC-MS analysis; format: ADME, cell-free; conditions: read-out: PPB (converted)
[9] = target: T1, LIM domain kinase 1; assay: Inhibition of LIMK1-catalyzed cofilin phosphorylation in human ZR-75-1 cells; format: cell-based
[10] = target: LIM domain kinase 2 (Homo sapiens, UniProt P53671); assay: Inhibition of LIMK2 (unknown origin)
LIM domain kinase 2, sequence (P53671 whole entry, the tested form may be a part): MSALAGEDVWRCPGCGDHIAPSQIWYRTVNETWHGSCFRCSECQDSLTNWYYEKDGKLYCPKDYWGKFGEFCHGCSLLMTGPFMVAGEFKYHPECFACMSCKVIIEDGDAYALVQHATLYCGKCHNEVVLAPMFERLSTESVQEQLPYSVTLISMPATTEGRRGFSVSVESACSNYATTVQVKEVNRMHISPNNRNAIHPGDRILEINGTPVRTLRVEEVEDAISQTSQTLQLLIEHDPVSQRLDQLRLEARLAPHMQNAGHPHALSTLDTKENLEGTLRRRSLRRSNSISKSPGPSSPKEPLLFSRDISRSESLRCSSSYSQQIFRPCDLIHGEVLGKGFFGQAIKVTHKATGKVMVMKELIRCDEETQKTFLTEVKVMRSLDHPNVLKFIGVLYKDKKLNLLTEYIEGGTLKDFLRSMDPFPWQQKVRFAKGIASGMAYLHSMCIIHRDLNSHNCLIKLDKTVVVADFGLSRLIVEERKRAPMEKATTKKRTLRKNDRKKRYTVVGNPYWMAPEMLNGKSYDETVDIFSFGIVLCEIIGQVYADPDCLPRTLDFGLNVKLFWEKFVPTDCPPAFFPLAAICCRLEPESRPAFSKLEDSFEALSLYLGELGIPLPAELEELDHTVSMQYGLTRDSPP

T1 sequence (P53667 whole entry, the tested form may be a part): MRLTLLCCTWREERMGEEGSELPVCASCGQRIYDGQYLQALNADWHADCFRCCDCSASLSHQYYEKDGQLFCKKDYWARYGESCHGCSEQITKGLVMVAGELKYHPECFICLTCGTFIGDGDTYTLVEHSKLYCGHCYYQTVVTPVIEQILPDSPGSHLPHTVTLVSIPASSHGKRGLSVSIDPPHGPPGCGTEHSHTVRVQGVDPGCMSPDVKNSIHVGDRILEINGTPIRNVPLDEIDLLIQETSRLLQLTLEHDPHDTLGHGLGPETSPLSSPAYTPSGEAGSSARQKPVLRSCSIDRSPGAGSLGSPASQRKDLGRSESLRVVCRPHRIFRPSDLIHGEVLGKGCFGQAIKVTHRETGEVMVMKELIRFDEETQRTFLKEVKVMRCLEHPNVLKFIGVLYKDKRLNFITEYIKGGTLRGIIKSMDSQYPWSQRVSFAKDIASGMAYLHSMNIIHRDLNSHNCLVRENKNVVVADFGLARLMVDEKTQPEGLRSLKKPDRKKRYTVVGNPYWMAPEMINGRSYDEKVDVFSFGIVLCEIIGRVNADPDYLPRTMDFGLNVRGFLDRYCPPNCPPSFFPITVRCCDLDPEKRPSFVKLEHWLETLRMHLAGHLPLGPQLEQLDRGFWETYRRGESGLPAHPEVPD

| IC50 [1] [nM] | IC50 [2] [nM] | Compound | other results |
| --- | --- | --- | --- |
| > 1000 |  | Nc1ncnc2c1sc1cc(-c3ccccc3Cl)ccc12 |  |
| 204 |  | COc1ccc(-c2ccc3c(c2)sc2c(N)ncnc23)cc1 |  |
| 376 |  | CS(=O)(=O)c1ccc(-c2ccc3c(c2)sc2c(N)ncnc23)cc1 |  |
|  | 228 | Nc1ncnc2c1sc1cc(-c3cccc(C(=O)NCCO)c3)ccc12 |  |
|  | 223 | CN1CCN(CCNC(=O)Nc2cccc(-c3ccc4c(c3)sc3c(N)ncnc34)c2)CC1 |  |
| 129 |  | Nc1ncnc2c1sc1cc(-c3cccc(CO)c3)ccc12 |  |
| 50 |  | Nc1ncnc2c1sc1cc(-c3cccc(-c4nn[nH]n4)c3)ccc12 | solubility kinetic [3]: 6.3 µg/mL (≈ 18.2 µM); solubility kinetic [4]: 6.3 µg/mL (≈ 18.2 µM); logD [5]: 2; microsomal CLint at 1 µM [6]: < 6 µL/min/mg; microsomal CLint at 1 µM [7]: < 5 µL/min/mg; fraction unbound [8]: 0.012; IC50 [9]: > 30000 nM; IC50 [10]: 90 nM |
| 260 |  | Nc1ncnc2c1sc1cc(-c3ccccc3O)ccc12 |  |
| 44 |  | Nc1ncnc2c1sc1cc(-c3ccc(NC=O)cc3)ccc12 |  |
|  | 571 | Cn1c2cc(-c3ccc(O)cc3)ccc2c2ncnc(N)c21 |  |
| 199 |  | Nc1ncnc2c1sc1cc(-c3cccc(Cl)c3)ccc12 |  |
| 149 |  | COc1cccc(-c2ccc3c(c2)sc2c(N)ncnc23)c1 |  |
|  | > 1000 | Nc1ncnc2c1sc1cc(-c3cccc(C(=O)N4CCOCC4)c3)ccc12 |  |
|  |  | Nc1ncnc2c1sc1cc(-c3ccccc3)ccc12 | solubility kinetic [3]: < 1.6 µg/mL; solubility kinetic [4]: 6.3 µg/mL (≈ 22.7 µM); logD [5]: 3.65; microsomal CLint at 1 µM [6]: 839 µL/min/mg; microsomal CLint at 1 µM [7]: 114 µL/min/mg |
|  | 54 | CCNC(=O)Nc1ncc(-c2cc(-c3c(C)cc(OC)cc3C)nc(-c3cnccn3)n2)s1 | solubility kinetic [3]: 1.6 µg/mL (≈ 3.47 µM); solubility kinetic [4]: 1.6 µg/mL (≈ 3.47 µM); logD [5]: 3; microsomal CLint at 1 µM [6]: 10 µL/min/mg; microsomal CLint at 1 µM [7]: < 5 µL/min/mg; IC50 [10]: 696 nM |
| 159 |  | Nc1ccc(-c2ccc3c(c2)sc2c(N)ncnc23)cc1 |  |
| 243 |  | CS(=O)(=O)Nc1ccc(-c2ccc3c(c2)sc2c(N)ncnc23)cc1 |  |
| 120 | 120 | NC(=O)c1cccc(-c2ccc3c(c2)sc2c(N)ncnc23)c1 | solubility kinetic [3]: 3.1 µg/mL (≈ 9.68 µM); solubility kinetic [4]: 25 µg/mL (≈ 78 µM); logD [5]: 1.9; microsomal CLint at 1 µM [6]: 26 µL/min/mg; microsomal CLint at 1 µM [7]: < 5 µL/min/mg; fraction unbound [8]: 0.037; IC50 [9]: > 30000 nM; IC50 [10]: 273 nM |
| 230 |  | Nc1ncnc2c1sc1cc(-c3cccc(O)c3)ccc12 |  |
| 795 |  | Nc1ncnc2c1sc1cc(-c3cccnc3)ccc12 |  |
|  | 498 | Cn1c2cc(-c3ccc(NC=O)cc3)ccc2c2ncnc(N)c21 |  |
| 267 |  | Nc1ncnc2c1sc1cc(-c3ccc(O)cc3)ccc12 |  |
| 998 |  | CS(=O)(=O)Nc1ccccc1-c1ccc2c(c1)sc1c(N)ncnc12 |  |

| IC50 [1] [nM] | IC50 [2] [nM] | Compound | other results |
| --- | --- | --- | --- |
|  | 379 | Cn1c2cc(-c3cccc(C(N)=O)c3)ccc2c2ncnc(N)c21 |  |
|  | 87 | CCNC(=O)Nc1cccc(-c2ccc3c(c2)sc2c(N)ncnc23)c1 | solubility kinetic [3]: 1.6 µg/mL (≈ 4.4 µM); solubility kinetic [4]: 12.5 µg/mL (≈ 34.4 µM); logD [5]: 2.4; microsomal CLint at 1 µM [6]: 68 µL/min/mg; microsomal CLint at 1 µM [7]: 24 µL/min/mg; IC50 [9]: > 30000 nM; IC50 [10]: 164 nM |
| 181 |  | CC(=O)Nc1ccc(-c2ccc3c(c2)sc2c(N)ncnc23)cc1 |  |
| 231 |  | Nc1cccc(-c2ccc3c(c2)sc2c(N)ncnc23)c1 |  |
|  | 78 | CC(C)NC(=O)Nc1cccc(-c2ccc3c(c2)sc2c(N)ncnc23)c1 |  |
|  | 237 | CC(C)CNC(=O)Nc1cccc(-c2ccc3c(c2)sc2c(N)ncnc23)c1 |  |
|  |  | Cn1c2cc(-c3ccccc3)ccc2c2ncnc(N)c21 | solubility kinetic [3]: 3.1 µg/mL (≈ 11.3 µM); solubility kinetic [4]: 12.5 µg/mL (≈ 45.6 µM); logD [5]: 3.4; microsomal CLint at 1 µM [6]: 572 µL/min/mg; microsomal CLint at 1 µM [7]: 70 µL/min/mg |
| 156 |  | NC(=O)c1ccc(-c2ccc3c(c2)sc2c(N)ncnc23)cc1 |  |
| 732 |  | Nc1ncnc2c1sc1cc(-c3ccncc3)ccc12 |  |
| 220 |  | COc1ccccc1-c1ccc2c(c1)sc1c(N)ncnc12 |  |
| 310 |  | Nc1ccccc1-c1ccc2c(c1)sc1c(N)ncnc12 |  |
| 828 |  | N#Cc1ccc(-c2ccc3c(c2)sc2c(N)ncnc23)cc1 |  |
| 127 |  | Nc1ncnc2c1sc1cc(-c3ccc(-c4nn[nH]n4)cc3)ccc12 |  |
| 163 |  | Nc1ncnc2c1sc1cc(-c3ccc(CO)cc3)ccc12 |  |
| 361 |  | CS(=O)(=O)c1cccc(-c2ccc3c(c2)sc2c(N)ncnc23)c1 |  |
|  | 294 | C[C@@H](NC(=O)c1cccc(-c2ccc3c(c2)sc2c(N)ncnc23)c1)C(N)=O |  |
| 196 |  | Nc1ncnc2c1sc1cc(-c3cccc(C(=O)O)c3)ccc12 |  |
| 395 |  | CC(=O)Nc1cccc(-c2ccc3c(c2)sc2c(N)ncnc23)c1 |  |
|  | 145 | NC(=O)Nc1cccc(-c2ccc3c(c2)sc2c(N)ncnc23)c1 |  |
| 172 |  | CC(=O)c1ccc(-c2ccc3c(c2)sc2c(N)ncnc23)cc1 |  |
|  |  | CC(C)C(=O)Nc1ncc(-c2cc(C(F)F)nn2-c2c(Cl)cccc2Cl)s1 | logD [5]: 3.8; fraction unbound [8]: 0.029 |
| 55 | 55 | Nc1ncnc2c1sc1cc(-c3cccc(NC=O)c3)ccc12 |  |
